Assay results: ChEMBL document CHEMBL3877326, “Design, synthesis and evaluation of some N-methylenebenzenamine derivatives as selective acetylcholinesterase (AChE) inhibitor and antioxidant to enhance learning and memory” (Bioorg Med Chem, 2017)
The source made the active and inactive calls. No cut-off for these calls is given here.

Experiments:
Cholinesterase = Cholinesterase (Equus caballus, UniProt P81908); assay: Inhibition of horse serum BuChE using butyrylthiocholine iodide as substrate preincubated for 20 mins followed by substrate addition by Ellman's method; type: ADME
Acetylcholinesterase [1] = target: T1, Acetylcholinesterase (Electrophorus electricus, UniProt O42275); assay: Inhibition of electric eel AChE using acetylthiocholine iodide as substrate preincubated for 20 mins followed by substrate addition by Ellman's method
[2] = Selectivity index, ratio of IC50 for horse serum BuChE to IC50 for electric eel AChE
Rattus norvegicus [3] = assay: Cognition enhancement activity in Charles Foster albino rat model of spatial working memory assessed as escape latency at 10 mg/kg, po for administered from day 1 to 10 measured 1 hr post last dose on day 10 by Morris water maze test (reference value: 14.12 +/- 0.78 sec); type: functional
[4] = Antioxidant activity assessed as DPPH radical scavenging activity at 10 to 100 ug/ml incubated for 30 mins under dark condition; type: functional
Rattus norvegicus [5] = assay: Cognition enhancement activity in Charles Foster albino rat model of spatial working memory assessed as escape latency at 10 mg/kg, po for administered from day 1 to 10 measured 1 hr post last dose on day 8 by Morris water maze test (reference value: 16.97 +/- 0.8 sec); type: functional
Rattus norvegicus [6] = assay: Cognition enhancement activity in Charles Foster albino rat model of spatial reference memory assessed as increase in time spent in target quadrant during probe trial at 10 mg/kg, po for 4 days administered from day 1 to 4 measured 1 hr post last dose on day 4 by Morris water maze test; type: functional, organism-based
Rattus norvegicus [7] = assay: Cognition enhancement activity in Charles Foster albino rat model of spatial working memory assessed as escape latency at 10 mg/kg, po for administered from day 1 to 10 measured 1 hr post last dose on day 7 by Morris water maze test (reference value: 17.45 +/- 0.62 sec); type: functional
[8] = Antioxidant activity assessed as H2O2 radical scavenging activity at 10 to 100 ug/ml incubated for 10 mins by UV-Visible spectrophotometric method; type: functional
Rattus norvegicus [9] = assay: Cognition enhancement activity in Charles Foster albino rat model of spatial reference memory assessed as decrease in escape latency at 10 mg/kg, po administered from day 1 to 2 measured 1 hr post last dose on day 2 by Morris water maze test; type: functional, organism-based
Rattus norvegicus [10] = assay: Cognition enhancement activity in Charles Foster albino rat model of spatial working memory assessed as escape latency at 10 mg/kg, po for administered from day 1 to 10 measured 1 hr post last dose on day 9 by Morris water maze test (reference value: 17.38 +/- 0.79 sec); type: functional
Rattus norvegicus [11] = assay: Cognition enhancement activity in Charles Foster albino rat model of spatial working memory assessed as escape latency at 30 mg/kg, po for administered from day 1 to 10 measured 1 hr post last dose on day 8 by Morris water maze test (reference value: 16.97 +/- 0.8 sec); type: functional
Rattus norvegicus [12] = assay: Cognition enhancement activity in Charles Foster albino rat model of spatial working memory assessed as escape latency at 20 mg/kg, po for administered from day 1 to 10 measured 1 hr post last dose on day 7 by Morris water maze test (reference value: 17.45 +/- 0.62 sec); type: functional
Rattus norvegicus [13] = assay: Cognition enhancement activity in Charles Foster albino rat model of spatial reference memory assessed as decrease in escape latency at 20 to 30 mg/kg, po administered from day 1 to 2 measured 1 hr post last dose on day 2 by Morris water maze test; type: functional, organism-based
Rattus norvegicus [14] = assay: Cognition enhancement activity in Charles Foster albino rat model of spatial working memory assessed as escape latency at 20 mg/kg, po for administered from day 1 to 10 measured 1 hr post last dose on day 8 by Morris water maze test (reference value: 16.97 +/- 0.8 sec); type: functional
Rattus norvegicus [15] = assay: Cognition enhancement activity in Charles Foster albino rat model of spatial working memory assessed as escape latency at 30 mg/kg, po for administered from day 1 to 10 measured 1 hr post last dose on day 9 by Morris water maze test (reference value: 17.38 +/- 0.79 sec); type: functional
Rattus norvegicus [16] = assay: Cognition enhancement activity in Charles Foster albino rat model of spatial reference memory assessed as increase in time spent in target quadrant during probe trial at 10 to 30 mg/kg, po administered from day 1 to 4 measured 1 hr post last dose on day 4 by Morris water maze test; type: functional, organism-based
Acetylcholinesterase [17] = target: T1, Acetylcholinesterase; assay: Uncompetitive inhibition of electric eel AChE using varying levels of acetylthiocholine iodide substrate preincubated for 20 mins followed by substrate addition by Lineweaver-Burk plot analysis
Rattus norvegicus [18] = assay: Cognition enhancement activity in Charles Foster albino rat model of spatial working memory assessed as escape latency at 30 mg/kg, po for administered from day 1 to 10 measured 1 hr post last dose on day 7 by Morris water maze test (reference value: 17.45 +/- 0.62 sec); type: functional
Rattus norvegicus [19] = assay: Cognition enhancement activity in Charles Foster albino rat model of spatial working memory assessed as escape latency at 20 mg/kg, po for administered from day 1 to 10 measured 1 hr post last dose on day 9 by Morris water maze test (reference value: 17.38 +/- 0.79 sec); type: functional
Rattus norvegicus [20] = assay: Ex vivo inhibition of AChE in Charles Foster albino rat brain assessed as substrate hydrolyzed per mg protein at 30 mg/kg, po measured after 1 hr using acetylthiocholine iodide as substrate by Ellman's method (reference value: 46.56 +/- 0.66 nmol/min); type: functional
Rattus norvegicus [21] = assay: Cognition enhancement activity in Charles Foster albino rat model of spatial working memory assessed as escape latency at 20 mg/kg, po for administered from day 1 to 10 measured 1 hr post last dose on day 10 by Morris water maze test (reference value: 14.12 +/- 0.78 sec); type: functional
Rattus norvegicus [22] = assay: Cognition enhancement activity in Charles Foster albino rat model of spatial working memory assessed as escape latency at 30 mg/kg, po for administered from day 1 to 10 measured 1 hr post last dose on day 10 by Morris water maze test (reference value: 14.12 +/- 0.78 sec); type: functional

T1 sequence (O42275 whole entry): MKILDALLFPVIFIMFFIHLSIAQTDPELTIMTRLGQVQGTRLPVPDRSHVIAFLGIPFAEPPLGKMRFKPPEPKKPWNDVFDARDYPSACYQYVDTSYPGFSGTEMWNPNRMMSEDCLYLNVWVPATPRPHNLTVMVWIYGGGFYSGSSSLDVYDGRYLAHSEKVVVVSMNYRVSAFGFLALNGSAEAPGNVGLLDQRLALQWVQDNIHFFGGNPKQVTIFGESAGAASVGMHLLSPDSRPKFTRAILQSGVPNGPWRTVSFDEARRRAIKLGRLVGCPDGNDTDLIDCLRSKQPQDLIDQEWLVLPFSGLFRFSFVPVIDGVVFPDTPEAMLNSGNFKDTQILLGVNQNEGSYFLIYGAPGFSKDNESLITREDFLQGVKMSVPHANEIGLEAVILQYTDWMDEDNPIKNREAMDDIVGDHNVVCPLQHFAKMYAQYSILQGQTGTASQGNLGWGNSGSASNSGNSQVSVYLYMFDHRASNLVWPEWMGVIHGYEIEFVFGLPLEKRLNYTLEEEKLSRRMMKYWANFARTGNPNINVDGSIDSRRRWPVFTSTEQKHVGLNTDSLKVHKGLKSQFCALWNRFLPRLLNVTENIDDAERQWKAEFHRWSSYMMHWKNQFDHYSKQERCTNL
Cholinesterase, sequence (P81908 whole entry): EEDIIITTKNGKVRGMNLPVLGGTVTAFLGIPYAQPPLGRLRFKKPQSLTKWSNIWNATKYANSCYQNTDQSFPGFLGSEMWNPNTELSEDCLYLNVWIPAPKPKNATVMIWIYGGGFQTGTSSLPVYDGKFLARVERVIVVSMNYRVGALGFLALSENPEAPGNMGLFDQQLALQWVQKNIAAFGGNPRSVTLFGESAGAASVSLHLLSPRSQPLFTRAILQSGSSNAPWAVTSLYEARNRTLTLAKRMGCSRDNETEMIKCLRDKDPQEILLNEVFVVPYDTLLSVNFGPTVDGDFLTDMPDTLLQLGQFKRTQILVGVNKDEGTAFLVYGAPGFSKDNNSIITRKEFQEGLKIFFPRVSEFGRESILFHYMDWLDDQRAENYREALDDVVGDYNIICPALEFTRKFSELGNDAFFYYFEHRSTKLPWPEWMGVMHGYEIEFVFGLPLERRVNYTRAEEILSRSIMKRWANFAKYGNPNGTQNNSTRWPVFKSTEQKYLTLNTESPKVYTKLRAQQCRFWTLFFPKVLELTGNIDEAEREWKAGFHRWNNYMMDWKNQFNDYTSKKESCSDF

| Compound | IC50 (Cholinesterase) [µM] | IC50 (Acetylcholinesterase [1]) [µM] | Ratio IC50 [2] | also measured |
| --- | --- | --- | --- | --- |
| COc1cc(/N=C/c2ccccc2[N+](=O)[O-])cc(OC)c1 | 457 | 14.3 | 31.8 | – |
| COc1cc(/C=N/c2ccc(C(=O)O)cc2)cc(OC)c1OC | 378 | 11.5 | 32.7 | – |
| COc1cc(/N=C/c2ccc([N+](=O)[O-])cc2)cc(OC)c1 | 452 | 7.01 | 64.5 | – |
| O=C(O)c1ccc(/N=C/c2ccccc2O)cc1 | 717 | 18 | 39.8 | – |
| COc1cc2c(cc1OC)C(=O)C(CC1CCN(Cc3ccccc3)CC1)C2 (configuration not stated) [DONEPEZIL] | – | – | – | Time (Rattus norvegicus [3]): 7.33 s; Activity [4]: Active; Time (Rattus norvegicus [5]): 14.38 s; Activity (Rattus norvegicus [6]): Active; Time (Rattus norvegicus [7]): 16.88 s; Activity [8]: Active; Activity (Rattus norvegicus [9]): Active; Time (Rattus norvegicus [10]): 7.78 s |
| COc1ccc(/C(=N\c2ccc(C(=O)O)cc2)c2ccccc2)cc1 | 292 | 6.09 | 47.9 | – |
| COc1cc(/N=C/c2cc(OC)c(OC)c(OC)c2)cc(OC)c1 | 328 | 0.82 | 402 | Time (Rattus norvegicus [11]): 15.23 s; Time (Rattus norvegicus [3]): 10.2 s; Time (Rattus norvegicus [12]): 16.95 s; Activity (Rattus norvegicus [13]): Active; Time (Rattus norvegicus [14]): 15.69 s; Activity [4]: Active; Time (Rattus norvegicus [5]): 15.45 s; Time (Rattus norvegicus [15]): 10.37 s; Activity (Rattus norvegicus [16]): Active; Ki (Acetylcholinesterase [17]): 0.72 µM; Time (Rattus norvegicus [18]): 16.87 s; Time (Rattus norvegicus [7]): 17.57 s; Time (Rattus norvegicus [19]): 12.23 s; Activity (Rattus norvegicus [20]): 30.85 nmol/min; Activity [8]: Active; Time (Rattus norvegicus [21]): 8.87 s; Time (Rattus norvegicus [22]): 8.92 s; Time (Rattus norvegicus [10]): 15.12 s |
| O=C(O)c1ccc(/N=C/c2ccccc2[N+](=O)[O-])cc1 | 387 | 6 | 64.5 | – |
| COc1ccc(/C(=N\c2cc(OC)cc(OC)c2)c2ccccc2)cc1 | 284 | 4.37 | 65.1 | – |
| COc1cc(/C(C)=N/c2ccc(C(=O)O)cc2)ccc1O | 839 | 3.93 | 214 | – |
| O=C(O)c1ccc(/N=C/c2ccccc2)cc1 | 502 | 12.6 | 39.7 | – |
| O=C(O)c1ccc(/N=C/c2ccc([N+](=O)[O-])cc2)cc1 | 217 | 5.95 | 36.5 | – |
| COc1cc(/N=C/c2ccccc2O)cc(OC)c1 | 747 | 25.5 | 29.2 | – |
